Measurements taken from patent publication US8722849B2, “Polypeptides” (Novo Nordisk A/S, priority 2011, dated 2014).
pEC50: −log10 of the molar value. Converted amounts (≈) assume the structure as drawn. Read-outs that look alike come from different tables or passages of the source. Starred links: 1 amine or outer side, 2 acyl side, 3 side chain; linkers in the order of their positions; H or OH if unused. Positions of bridges follow the written chain, without caps; N, C: chain ends. Residues, ends and D or L forms follow the SMILES beside them. *: point of attachment. C20 diacid = O=C(O)CCCCCCCCCCCCCCCCCCC(=O)*; γGlu = O=C(O)[C@H](CCC(=O)[*:2])N[*:1]

Columns and labels:
[1] = target: T1, human amylin receptor (amylin 3(a) receptor: human calcitonin receptor + RAMP-3) (Homo sapiens, UniProt O60896+P30988); assay: Assay (II)a functional CRE-luciferase assay, human amylin receptor; assay type: cell-based
T1 construct: expressed in transfected cells; host or cells: BHK570
T1 sequence (P30988 25-474): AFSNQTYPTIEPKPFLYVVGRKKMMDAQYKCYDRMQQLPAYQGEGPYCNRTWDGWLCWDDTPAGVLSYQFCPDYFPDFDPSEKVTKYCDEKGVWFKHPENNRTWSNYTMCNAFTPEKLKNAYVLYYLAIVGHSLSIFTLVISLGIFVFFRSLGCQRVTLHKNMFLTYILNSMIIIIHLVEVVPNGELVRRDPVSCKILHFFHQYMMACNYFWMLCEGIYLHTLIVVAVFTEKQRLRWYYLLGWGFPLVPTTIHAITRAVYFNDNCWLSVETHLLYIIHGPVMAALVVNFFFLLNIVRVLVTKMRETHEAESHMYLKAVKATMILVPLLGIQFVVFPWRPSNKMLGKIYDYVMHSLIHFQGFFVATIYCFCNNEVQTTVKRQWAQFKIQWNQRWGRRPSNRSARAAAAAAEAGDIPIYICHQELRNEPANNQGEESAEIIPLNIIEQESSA
T1 sequence (O60896 24-148 partner): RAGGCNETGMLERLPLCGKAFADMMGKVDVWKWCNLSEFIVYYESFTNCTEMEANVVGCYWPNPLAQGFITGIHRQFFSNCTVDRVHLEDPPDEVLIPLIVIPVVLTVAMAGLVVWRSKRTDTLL

[2] = target: T2, human calcitonin receptor (Homo sapiens, UniProt P30988); assay: Assay (II)a functional CRE-luciferase assay, human calcitonin receptor; assay type: cell-based
T2 construct: expressed in transfected cells; host or cells: BHK570
T2 sequence (P30988 25-474): T1 sequence (P30988 25-474)

[3] = Assay (IV) determination of solubility; assay type: physicochemical
Procedure, shortened: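 Polypeptide in water (~500 nmol/ml stock) was mixed 1:1 with 100 mM buffers from pH 3.0 to 8.0 (glycylglycine pH 3.0–5.0; bistrispropane pH 6.0–8.0). After 18 hours at room temperature, samples were centrifuged and the polypeptide remaining in solution was quantified by HPLC.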

[4] = Assay (III) ThT fibrillation assay for physical stability; assay type: physicochemical; details: ThT fibrillation assay
Description: ASSAY (III)—ThT Fibrillation Assays for the Assessment of Physical Stability of Protein formulations Low physical stability of a polypeptide may lead to amyloid fibril formation, which is observed as well-ordered, thread-like macromolecular structures in the sample eventually resulting in gel formation. This has traditionally been measured by visual inspection of the sample. However, that kind of measurement is very subjective and depending on the observer. Therefore, the application of a small molecule indicator probe is much more advantageous. Thioflavin T (ThT) is such a probe and has a distinct fluorescence signature when binding to fibrils [Naiki et al. (1989) Anal. Biochem. 177, 244-249; LeVine (1999) Methods. Enzymol. […], 274-284]. The time course for fibril formation can be described by a sigmoidal curve with the following expression [Nielsen et al. (2001) Biochemistry 40, 6036-6046]: [formula] Here, F is the ThT fluorescence at the time t. The constant t0 is the time needed to reach 50% of maximum fluorescence. […] Few of those intermediates nucleate to form a template onto which further intermediates may assembly and the fibrillation proceeds. The lag-time corresponds to the interval in which the critical mass of nucleus is built up and the apparent rate constant is the rate with which the fibril itself is formed. Sample Preparation Samples were prepared freshly before each assay. Each sample composition is described in each example. The pH of the sample was adjusted to the desired value using appropriate amounts of concentrated NaOH and HClO4 or HCl. Thioflavin T was added to the samples from a stock solution in H2O to a final concentration of 1 μM. Sample aliquots of 200 μl were placed in a 96 well microtiter plate (Packard OptiPlate™-96, white polystyrene). Usually, four or eight replica of each sample (corresponding to one test condition) were placed in one column of wells. The plate was sealed with Scotch Pad (Qiagen). Incubation and Fluorescence Measurement Incubation at given temperature, shaking and measurement of the ThT fluorescence emission were done in a Fluoroskan Ascent FL fluorescence platereader or Varioskan platereader (Thermo Labsystems). The temperature was adjusted to 37° C. The orbital shaking was adjusted to 960 rpm with an amplitude of 1 mm in all the presented data. Fluorescence measurement was done using excitation through a 444 nm filter and measurement of emission through a 485 nm filter. Each run was initiated by incubating the plate at the assay temperature for 10 min. The plate was measured every 20 minutes for a desired period of time. Between each measurement, the plate was shaken and heated as described. Data Handling The measurement points were saved in Microsoft Excel format for further processing and curve drawing and fitting was performed using GraphPad Prism. The background emission from ThT in the absence of fibrils was negligible. The data points are typically a mean of four or eight samples and shown with standard deviation error bars. Only data obtained in the same experiment (i.e. samples on the same plate) are presented in the same graph ensuring a relative measure of fibrillation between experiments. The data set may be fitted to Eq. (1). However, since full sigmodial curves in this case are not always achieved during the measurement time, the degree of fibrillation is expressed as ThT fluorescence tabulated as the mean of the samples and shown with the standard deviation at various time points. Measurement of Initial and Final Concentrations The polypeptide concentration in each of the tested formulations were measured both before application in the ThT fibrillation assay (“Initial”) and after completion of the ThT fibrillation (“After ThT assay”). Concentrations were determined by reverse HPLC methods using a pramlintide standard as a reference. Before measurement after completion 150 μl was collected from each of the replica and transferred to an Eppendorf tube. […]

[5] = Table 2, BHK amylin 3(a)-receptor/CRE-luc cells
[6] = Table 7, human calcitonin (CTa) receptor
[7] = bistrispropane buffer, pH 6, pH 6.0, read-out: Solubility pH 6.0
[8] = bistrispropane buffer, pH 6.5, pH 6.5, read-out: Solubility pH 6.5
[9] = bistrispropane buffer, pH 7, pH 7.0, 18 hours at room temperature, Table 3, read-out: Solubility pH 7.0
[10] = bistrispropane buffer, pH 7, pH 7.0, read-out: Solubility pH 7.0
[11] = bistrispropane buffer, pH 7.5, pH 7.5, read-out: Solubility pH 7.5
[12] = bistrispropane buffer, pH 8, pH 8.0, read-out: Solubility pH 8.0
[13] = glycylglycine buffer, pH 3, pH 3.0, read-out: Solubility pH 3.0
[14] = glycylglycine buffer, pH 4, pH 4.0, 18 hours at room temperature, Table 2, read-out: Solubility pH 4.0
[15] = glycylglycine buffer, pH 4, pH 4.0, read-out: Solubility pH 4.0
[16] = glycylglycine buffer, pH 5, pH 5.0, read-out: Solubility pH 5.0

Row | pEC50 [1, 5] | pEC50 [2, 6] | solubility at 18 h [3, 7] | solubility at 18 h [3, 8] | solubility at 18 h [3, 9] | solubility at 18 h [3, 10] | solubility at 18 h [3, 11] | solubility at 18 h [3, 12] | solubility at 18 h [3, 13] | solubility at 18 h [3, 14] | solubility at 18 h [3, 15] | solubility at 18 h [3, 16] | ThT pH 4.0 lag time (h) [4] | pEC50 ([1]; Table 11) | pEC50 ([2]; Table 11, read-out: CTa receptor human EC50) | Structure (SMILES)
1 | 10.07 | 10.14 | > 200 µM | > 200 µM | > 200 µM | > 200 µM | > 200 µM | > 200 µM | > 200 µM | > 200 µM | > 200 µM | > 200 µM | 6.3 h |  |  | CC[C@H](C)[C@H](NC(=O)[C@@H]1CCCN1C(=O)CNC(=O)[C@H](Cc1ccccc1)NC(=O)[C@H](CC(N)=O)NC(=O)[C@H](CC(N)=O)NC(=O)[C@H](CO)NC(=O)[C@H](CO)NC(=O)[C@H](Cc1c[nH]cn1)NC(=O)[C@@H](NC(=O)[C@H](CC(C)C)NC(=O)[C@H](Cc1ccccc1)NC(=O)[C@H](CCC(=O)O)NC(=O)[C@H](C)NC(=O)[C@H](CC(C)C)NC(=O)[C@H](CCCNC(=N)N)NC(=O)[C@H](CCC(N)=O)NC(=O)[C@@H](NC(=O)[C@H](C)NC(=O)[C@@H]1CSSC[C@H](NC(=O)[C@H](Cc2c[nH]cn2)NC(=O)CC[C@H](NC(=O)CCCCCCCCCCCCCCCCCCC(=O)O)C(=O)O)C(=O)N[C@@H](CC(N)=O)C(=O)N[C@@H]([C@@H](C)O)C(=O)N[C@@H](C)C(=O)N[C@@H]([C@@H](C)O)C(=O)N1)[C@@H](C)O)C(C)C)C(=O)N[C@@H](CC(C)C)C(=O)N1CCC[C@H]1C(=O)N1CCC[C@H]1C(=O)N[C@H](C(=O)N[C@@H](CC(N)=O)C(=O)N[C@H](C(=O)NCC(=O)N[C@@H](CO)C(=O)N[C@@H](CC(N)=O)C(=O)N[C@H](C(=O)N1CCC[C@H]1C(N)=O)[C@@H](C)O)C(C)C)[C@@H](C)O [Example 109, N-alpha-[(S)-4-Carboxy-4-(19-carboxynonadecanoylamino)butyryl]-[His1,Glu14,Pro37]-pramlintide] ({C20 diacid-γGlu}-HCNTATCATQRLAEFLVHSSNNFGPILPPTNVGSNTP-NH2; disulfide 2-7 (inferred); C-terminus assumed)
2 | 10.38 | 10.66 | 75 µM (≈ 329 µg/mL) | 122 µM (≈ 534 µg/mL) | 165 µM (≈ 723 µg/mL) | 165 µM (≈ 723 µg/mL) | > 200 µM | > 200 µM | > 200 µM | > 200 µM | > 200 µM | > 200 µM | 6 h |  |  | CC[C@H](C)[C@H](NC(=O)[C@@H]1CCCN1C(=O)CNC(=O)[C@H](Cc1ccccc1)NC(=O)[C@H](CC(N)=O)NC(=O)[C@H](CC(N)=O)NC(=O)[C@H](CO)NC(=O)[C@H](CO)NC(=O)[C@H](CCCNC(=N)N)NC(=O)[C@@H](NC(=O)[C@H](CC(C)C)NC(=O)[C@H](Cc1ccccc1)NC(=O)[C@H](CCC(=O)O)NC(=O)[C@H](C)NC(=O)[C@H](CC(C)C)NC(=O)[C@H](CCCNC(=N)N)NC(=O)[C@H](CCC(N)=O)NC(=O)[C@@H](NC(=O)[C@H](C)NC(=O)[C@@H]1CSSC[C@H](NC(=O)[C@H](Cc2c[nH]cn2)NC(=O)CC[C@H](NC(=O)CCCCCCCCCCCCCCCCCCC(=O)O)C(=O)O)C(=O)N[C@@H](CC(N)=O)C(=O)N[C@@H]([C@@H](C)O)C(=O)N[C@@H](C)C(=O)N[C@@H]([C@@H](C)O)C(=O)N1)[C@@H](C)O)C(C)C)C(=O)N[C@@H](CC(C)C)C(=O)N1CCC[C@H]1C(=O)N1CCC[C@H]1C(=O)N[C@H](C(=O)N[C@@H](CC(N)=O)C(=O)N[C@H](C(=O)NCC(=O)N[C@@H](CO)C(=O)N[C@@H](CC(N)=O)C(=O)N[C@H](C(=O)N1CCC[C@H]1C(N)=O)[C@@H](C)O)C(C)C)[C@@H](C)O [Example 143, N-alpha-[(S)-4-Carboxy-4-(19-carboxynonadecanoylamino)butyryl]-[His1,Glu14,Arg18,Pro37]-pramlintide] ({C20 diacid-γGlu}-HCNTATCATQRLAEFLVRSSNNFGPILPPTNVGSNTP-NH2; disulfide 2-7 (inferred))
3 |  |  | 155 µM (≈ 717 µg/mL) | 127 µM (≈ 587 µg/mL) |  | 54 µM (≈ 250 µg/mL) | 157 µM (≈ 726 µg/mL) | 117 µM (≈ 541 µg/mL) | > 200 µM |  | > 200 µM | > 200 µM | 0.3 h | 10.35 | 10.21 | CC[C@H](C)[C@H](NC(=O)[C@@H]1CCCN1C(=O)CNC(=O)[C@H](Cc1ccccc1)NC(=O)[C@H](CC(N)=O)NC(=O)[C@H](CC(N)=O)NC(=O)[C@H](CO)NC(=O)[C@H](CO)NC(=O)[C@H](Cc1c[nH]cn1)NC(=O)[C@@H](NC(=O)[C@H](CC(C)C)NC(=O)[C@H](Cc1ccccc1)NC(=O)[C@H](CC(N)=O)NC(=O)[C@H](C)NC(=O)[C@H](CC(C)C)NC(=O)[C@H](CCCNC(=N)N)NC(=O)[C@H](CCC(N)=O)NC(=O)[C@@H](NC(=O)[C@H](C)NC(=O)[C@@H]1CSSC[C@H](NC(=O)[C@H](CCC(=O)O)NC(=O)[C@H](CCCNC(=N)N)NC(=O)[C@H](CCC(=O)O)NC(=O)[C@H](CCC(=O)O)NC(=O)CCCCCCCCCCCCCCCCCCC(=O)O)C(=O)N[C@@H](CC(N)=O)C(=O)N[C@@H]([C@@H](C)O)C(=O)N[C@@H](C)C(=O)N[C@@H]([C@@H](C)O)C(=O)N1)[C@@H](C)O)C(C)C)C(=O)N[C@@H](CC(C)C)C(=O)N1CCC[C@H]1C(=O)N1CCC[C@H]1C(=O)N[C@H](C(=O)N[C@@H](CC(N)=O)C(=O)N[C@H](C(=O)NCC(=O)N[C@@H](CO)C(=O)N[C@@H](CC(N)=O)C(=O)N[C@H](C(=O)N1CCC[C@H]1C(N)=O)[C@@H](C)O)C(C)C)[C@@H](C)O [Example 121, N-alpha-(19-carboxynonadecanoyl)-Glu-Glu-Arg-[Glu1,Pro37]-pramlintide] ({C20 diacid}-EERECNTATCATQRLANFLVHSSNNFGPILPPTNVGSNTP-NH2; disulfide 5-10 (inferred); C-terminus assumed)
